Source: paper PMC5030160 (Nature chemical biology, 2016)

Target: Pdr5 (Saccharomyces cerevisiae, UniProt P33302)
Test: fluorescence transport assay in isolated plasma membranes
Format: biochemical
Settings: 150 nM R6G, 10 mM ATP, 5 mM MgCl2, Hepes pH 7.0, 30 °C

Pdr5, sequence (P33302 whole entry): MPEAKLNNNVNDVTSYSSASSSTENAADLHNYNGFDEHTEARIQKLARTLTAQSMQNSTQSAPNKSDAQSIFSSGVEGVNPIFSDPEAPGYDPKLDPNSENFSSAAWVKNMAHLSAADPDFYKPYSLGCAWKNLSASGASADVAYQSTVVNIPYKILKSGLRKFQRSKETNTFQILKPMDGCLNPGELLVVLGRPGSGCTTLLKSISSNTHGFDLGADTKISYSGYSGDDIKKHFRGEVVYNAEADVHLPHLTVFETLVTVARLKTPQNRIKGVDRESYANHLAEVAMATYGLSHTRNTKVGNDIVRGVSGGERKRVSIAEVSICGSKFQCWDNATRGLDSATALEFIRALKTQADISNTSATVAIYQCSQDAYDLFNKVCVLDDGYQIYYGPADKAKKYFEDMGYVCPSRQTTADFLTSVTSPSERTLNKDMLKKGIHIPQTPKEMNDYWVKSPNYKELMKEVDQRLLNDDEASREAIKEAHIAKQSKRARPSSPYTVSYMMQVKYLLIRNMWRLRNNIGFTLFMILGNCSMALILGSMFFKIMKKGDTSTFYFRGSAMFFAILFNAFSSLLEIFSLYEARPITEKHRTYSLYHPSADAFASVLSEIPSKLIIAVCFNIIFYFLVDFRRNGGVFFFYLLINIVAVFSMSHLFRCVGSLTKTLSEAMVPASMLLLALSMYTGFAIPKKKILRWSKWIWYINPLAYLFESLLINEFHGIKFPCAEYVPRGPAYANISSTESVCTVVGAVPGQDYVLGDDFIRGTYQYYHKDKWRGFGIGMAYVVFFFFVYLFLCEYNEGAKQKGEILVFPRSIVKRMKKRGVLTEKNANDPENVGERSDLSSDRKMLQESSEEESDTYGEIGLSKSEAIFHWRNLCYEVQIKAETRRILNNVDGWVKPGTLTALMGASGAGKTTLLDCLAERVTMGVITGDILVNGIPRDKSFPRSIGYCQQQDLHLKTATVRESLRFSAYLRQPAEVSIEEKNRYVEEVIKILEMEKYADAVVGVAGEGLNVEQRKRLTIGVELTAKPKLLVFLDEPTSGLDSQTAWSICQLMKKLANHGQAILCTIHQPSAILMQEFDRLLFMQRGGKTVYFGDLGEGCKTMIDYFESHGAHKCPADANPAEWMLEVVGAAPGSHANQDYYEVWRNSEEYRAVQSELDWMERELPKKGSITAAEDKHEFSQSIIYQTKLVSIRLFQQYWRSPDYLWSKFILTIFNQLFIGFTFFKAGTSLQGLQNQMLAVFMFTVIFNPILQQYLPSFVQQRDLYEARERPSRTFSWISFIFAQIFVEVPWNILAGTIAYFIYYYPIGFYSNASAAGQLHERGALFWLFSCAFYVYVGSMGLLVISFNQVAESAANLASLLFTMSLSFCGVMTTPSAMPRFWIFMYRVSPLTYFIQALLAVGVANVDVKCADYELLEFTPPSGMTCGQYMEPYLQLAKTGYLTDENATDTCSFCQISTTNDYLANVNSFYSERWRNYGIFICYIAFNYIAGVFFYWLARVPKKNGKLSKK

**Q.** Which “fluorescence transport assay in isolated plasma membranes” value does the source give for CCN=c1cc2oc3cc(NCC)c(C)cc3c(-c3ccccc3C(=O)OCC)c-2cc1C [rhodamine-6G] here?
**A.** Active transport of rhodamine-6G (R6G) was determined according to a standard protocol
